Results taken from patent US8796245B2 (TetraPhase Pharmaceuticals, Inc., priority 2008, dated 2014).
Converted amounts (≈) assume the structure as drawn.

Key:
Assay type in all cases: cell-based
[1] = test system: E. faecalis EF159 (tet resistant: tetM); assay: Minimum inhibitory concentration assay, EF159; conditions: Enterococcus faecalis, read-out: MICs EF159
Procedure: (§1) Frozen bacterial strains were thawed and subcultured onto Mueller Hinton Broth (MHB) or other appropriate media (Streptococcus requires blood and Haemophilus requires hemin and NAD). Following incubation overnight, the strains were subcultured onto Mueller Hinton Agar and again incubated overnight. […] Isolated colonies were selected to prepare a starting inoculum equivalent to a 0.5 McFarland standard. The starting inoculum was diluted 1:125 using MHB for further use. Test compounds were prepared by dilution in sterile water to a final concentration of 5.128 mg/mL. Antibiotics (stored frozen, thawed and used within 3 hours of thawing) and compounds were further diluted to the desired working concentrations.
(§2) The assays were run as follows. Fifty μL of MHB was added to wells 2-12 of a 96-well plate. One hundred […] of appropriately diluted antibiotics was added to well 1. Fifty μL of antibiotics was removed from well 1 and added to well 2 and the contents of well 2 mixed by pipetting up and down five times. Fifty μL of the mixture in well 2 was removed and added to well 3 and mixed as above. Serial dilutions were continued in the same manner through well 12. Fifty μL was removed from well 12 so that all contained 50 μL. Fifty μL of the working inoculum was then added to all test wells. A growth control well was prepared by adding 50 μL of working inoculum and 50 μL of MHB to an empty well. The plates were then incubated at 37° C. overnight, removed from the incubator and each well was read on a plate reading mirror. The lowest concentration (MIC) of test compound that inhibited the growth of the bacteria was recorded.

[2] = test system: S. aureus ATCC 13709 (SA100, MSSA, Smith strain); assay: Minimum inhibitory concentration assay, SA100; conditions: Staphylococcus aureus; S. aureus ATCC 13709, MSSA Smith strain; read-out: MICs SA100
Procedure: as §1, §2

[3] = test system: K. pneumoniae ATCC 13883 (KP109); assay: Minimum inhibitory concentration assay, KP109; conditions: Klebsiella pneumoniae, ATCC13883; K. pneumoniae ATCC 13883, wt; read-out: MICs KP109
Procedure: as §1, §2

[4] = test system: S. pneumoniae SP160 (tet resistant: tet M); assay: Minimum inhibitory concentration assay, SP160; conditions: Streptococcus pneumoniae, read-out: MICs SP160
Procedure: as §1, §2

[5] = test system: S. pneumoniae ATCC 49619 (SP106); assay: Minimum inhibitory concentration assay, SP106; conditions: Streptococcus pneumoniae, ATCC49619; S. pneumoniae ATCC 49619, wt; read-out: MICs SP106
Procedure: as §1, §2

[6] = test system: P. aeruginosa ATCC 27853 (PA111); assay: Minimum inhibitory concentration assay, PA111; conditions: Pseudomonas aeruginosa, ATCC27853; P. aeruginosa ATCC 27853, wt; read-out: MICs PA111
Procedure: as §1, §2

[7] = test system: S. aureus ATCC 29213 (SA101, MSSA); assay: Minimum inhibitory concentration assay, SA101; conditions: Staphylococcus aureus; S. aureus ATCC 29213, MSSA control; read-out: MICs SA101
Procedure: as §1, §2

[8] = test system: E. coli ATCC 25922 (EC107); assay: Minimum inhibitory concentration assay, EC107; conditions: Escherichia coli, ATCC25922; E. coli ATCC 25922, wt; read-out: MICs EC107
Procedure: as §1, §2

[9] = test system: A. baumanii ATCC 19606 (AB110); assay: Minimum inhibitory concentration assay, AB110; conditions: Acinetobacter baumannii, ATCC19606; A. baumanii ATCC 19606, wt; read-out: MICs AB110
Procedure: as §1, §2

[10] = test system: E. coli EC155 (tet resistant: tetA efflux); assay: microbe, parasite or virus in culture; conditions: Escherichia coli; E. coli tet resistant: tetA (efflux); read-out: MICs EC155
Procedure: as §1, §2

[11] = test system: S. aureus SA158 (tet resistant: tetK efflux); assay: microbe, parasite or virus in culture; conditions: Staphylococcus aureus, read-out: MICs SA158
Procedure: as §1, §2

[12] = test system: K. pneumoniae KP153 (tet resistant: tetA efflux); assay: microbe, parasite or virus in culture; conditions: Klebsiella pneumoniae, read-out: MICs KP153
Procedure: as §1, §2

[13] = test system: E. faecalis ATCC 29212 (EF103); assay: Minimum inhibitory concentration assay, EF103; conditions: Enterococcus faecalis, ATCC29212, read-out: MICs EF103
Procedure: as §1, §2

[14] = test system: S. aureus SA161 (tet resistant: tet(M) ribosomal protection); assay: Minimum inhibitory concentration assay, SA161; conditions: Staphylococcus aureus, read-out: MICs SA161
Procedure: as §1, §2

[15] = test system: E. cloacae ATCC 13047 (EC108); assay: Minimum inhibitory concentration assay, EC108; conditions: Enterobacter cloacae, ATCC13047; E. cloacae ATCC 13047, wt; read-out: MICs EC108
Procedure: as §1, §2

In the case of `CN(C)[C@@H]1C(O)=C(C(N)=O)C(=O)[C@@]2(O)C(O)=C3C(=O)c4c(O)c(NC(=O)CNC(C)(C)C)cc(F)c4C[C@H]3C[C@@H]12` [Compound 11], the MIC [1] is reported as 0.125 µg/mL (≈ 0.223 µM), the MIC [2] is reported as 0.25 µg/mL (≈ 0.446 µM) and the MIC [3] is reported as 1 µg/mL (≈ 1.78 µM). For the same compound, the MIC [4] was ≤ 0.0156 µg/mL, the MIC [5] was ≤ 0.0156 µg/mL and the MIC [6] was 16 µg/mL (≈ 28.5 µM). It also gave an MIC [7] of 0.125 µg/mL (≈ 0.223 µM), an MIC [8] of 0.25 µg/mL (≈ 0.446 µM) and an MIC [9] of 0.5 µg/mL (≈ 0.892 µM). It also gave an MIC [10] of 2 µg/mL (≈ 3.57 µM), an MIC [11] of 0.0625 µg/mL (≈ 0.111 µM) and an MIC [12] of 2 µg/mL (≈ 3.57 µM). The MIC [13] was 0.0625 µg/mL (≈ 0.111 µM), the MIC [14] was 0.25 µg/mL (≈ 0.446 µM) and the MIC [15] was 1 µg/mL (≈ 1.78 µM).
With `CN(C)[C@@H]1CCN(CC(=O)Nc2cc(F)c3c(c2O)C(=O)C2=C(O)[C@]4(O)C(=O)C(C(N)=O)=C(O)[C@@H](N(C)C)[C@@H]4C[C@@H]2C3)C1` [Compound 37] the MIC [1] was 16 µg/mL (≈ 26.6 µM), the MIC [2] was 8 µg/mL (≈ 13.3 µM) and the MIC [3] was > 32 µg/mL. The MIC [4] was 4 µg/mL (≈ 6.65 µM), the MIC [5] was 2 µg/mL (≈ 3.32 µM) and the MIC [6] was > 32 µg/mL. For the same compound, the MIC [7] was 8 µg/mL (≈ 13.3 µM), the MIC [8] was > 32 µg/mL and the MIC [9] was > 32 µg/mL. The MIC [10] was > 32 µg/mL, the MIC [11] was > 32 µg/mL and the MIC [12] was > 32 µg/mL. The MIC [13] was 16 µg/mL (≈ 26.6 µM), the MIC [14] was > 32 µg/mL and the MIC [15] was > 32 µg/mL.
`CN(C)[C@@H]1C(O)=C(C(N)=O)C(=O)[C@@]2(O)C(O)=C3C(=O)c4c(O)c(NC(=O)CNCC5CC5)cc(F)c4C[C@H]3C[C@@H]12` [Compound 20] gave an MIC [1] of 0.0625 µg/mL (≈ 0.112 µM), an MIC [2] of 0.25 µg/mL (≈ 0.448 µM) and an MIC [3] of 1 µg/mL (≈ 1.79 µM). For the same compound, the MIC [4] was ≤ 0.0156 µg/mL, the MIC [5] was ≤ 0.0156 µg/mL and the MIC [6] was 8 µg/mL (≈ 14.3 µM). For the same compound, the MIC [7] was ≤ 0.0156 µg/mL, the MIC [8] was 0.25 µg/mL (≈ 0.448 µM) and the MIC [9] was 1 µg/mL (≈ 1.79 µM). It also gave an MIC [10] of 8 µg/mL (≈ 14.3 µM), an MIC [11] of 0.5 µg/mL (≈ 0.895 µM) and an MIC [12] of 4 µg/mL (≈ 7.16 µM). The MIC [13] was ≤ 0.0156 µg/mL, the MIC [14] was 0.25 µg/mL (≈ 0.448 µM) and the MIC [15] was 1 µg/mL (≈ 1.79 µM).
For `COCCNCC(=O)Nc1cc(F)c2c(c1O)C(=O)C1=C(O)[C@]3(O)C(=O)C(C(N)=O)=C(O)[C@@H](N(C)C)[C@@H]3C[C@@H]1C2` [Compound 21], the MIC [1] was 1 µg/mL (≈ 1.78 µM), the MIC [2] was 0.25 µg/mL (≈ 0.444 µM) and the MIC [3] was 2 µg/mL (≈ 3.56 µM). For the same compound, the MIC [4] was 0.0625 µg/mL (≈ 0.111 µM), the MIC [5] was ≤ 0.0156 µg/mL and the MIC [6] was 16 µg/mL (≈ 28.4 µM). It also gave an MIC [7] of 0.25 µg/mL (≈ 0.444 µM), an MIC [8] of 1 µg/mL (≈ 1.78 µM) and an MIC [9] of 2 µg/mL (≈ 3.56 µM). It also gave an MIC [10] of 16 µg/mL (≈ 28.4 µM), an MIC [11] of 4 µg/mL (≈ 7.11 µM) and an MIC [12] of 8 µg/mL (≈ 14.2 µM). For the same compound, the MIC [13] was 0.125 µg/mL (≈ 0.222 µM), the MIC [14] was 0.5 µg/mL (≈ 0.889 µM) and the MIC [15] was 4 µg/mL (≈ 7.11 µM).
`CN(C)[C@@H]1C(O)=C(C(N)=O)C(=O)[C@@]2(O)C(O)=C3C(=O)c4c(O)c(NC(=O)CN5Cc6ccccc6C5)cc(F)c4C[C@H]3C[C@@H]12` [Compound 46] showed an MIC [1] of 0.5 µg/mL (≈ 0.824 µM), an MIC [2] of 0.25 µg/mL (≈ 0.412 µM) and an MIC [3] of 4 µg/mL (≈ 6.59 µM). The MIC [4] was 0.125 µg/mL (≈ 0.206 µM), the MIC [5] was 0.125 µg/mL (≈ 0.206 µM) and the MIC [6] was > 32 µg/mL. For the same compound, the MIC [7] was 0.25 µg/mL (≈ 0.412 µM), the MIC [8] was 2 µg/mL (≈ 3.3 µM) and the MIC [9] was 0.125 µg/mL (≈ 0.206 µM). It also gave an MIC [10] of 4 µg/mL (≈ 6.59 µM), an MIC [11] of 0.25 µg/mL (≈ 0.412 µM) and an MIC [12] of 32 µg/mL (≈ 52.8 µM). The MIC [13] was 0.25 µg/mL (≈ 0.412 µM), the MIC [14] was 0.5 µg/mL (≈ 0.824 µM) and the MIC [15] was 32 µg/mL (≈ 52.8 µM).
`CC(C)CNCC(=O)Nc1cc(F)c2c(c1O)C(=O)C1=C(O)[C@]3(O)C(=O)C(C(N)=O)=C(O)[C@@H](N(C)C)[C@@H]3C[C@@H]1C2` [Compound 19] showed an MIC [1] of 0.125 µg/mL (≈ 0.223 µM), an MIC [2] of 0.25 µg/mL (≈ 0.446 µM) and an MIC [3] of 1 µg/mL (≈ 1.78 µM). The MIC [4] was ≤ 0.0156 µg/mL, the MIC [5] was ≤ 0.0156 µg/mL and the MIC [6] was 16 µg/mL (≈ 28.5 µM). It also gave an MIC [7] of 0.125 µg/mL (≈ 0.223 µM), an MIC [8] of 0.25 µg/mL (≈ 0.446 µM) and an MIC [9] of 0.25 µg/mL (≈ 0.446 µM). The MIC [10] was 4 µg/mL (≈ 7.14 µM), the MIC [11] was 0.25 µg/mL (≈ 0.446 µM) and the MIC [12] was 4 µg/mL (≈ 7.14 µM). For the same compound, the MIC [13] was ≤ 0.0156 µg/mL, the MIC [14] was 0.25 µg/mL (≈ 0.446 µM) and the MIC [15] was 2 µg/mL (≈ 3.57 µM).
Compound `CN(CC(=O)Nc1cc(F)c2c(c1O)C(=O)C1=C(O)[C@]3(O)C(=O)C(C(N)=O)=C(O)[C@@H](N(C)C)[C@@H]3C[C@@H]1C2)C1CCCC1` [Compound 31] has an MIC [1] of 1 µg/mL (≈ 1.7 µM), an MIC [2] of 2 µg/mL (≈ 3.41 µM) and an MIC [3] of 4 µg/mL (≈ 6.82 µM). The MIC [4] was 0.25 µg/mL (≈ 0.426 µM), the MIC [5] was 0.25 µg/mL (≈ 0.426 µM) and the MIC [6] was > 32 µg/mL. For the same compound, the MIC [7] was 1 µg/mL (≈ 1.7 µM), the MIC [8] was 2 µg/mL (≈ 3.41 µM) and the MIC [9] was 0.5 µg/mL (≈ 0.852 µM). For the same compound, the MIC [10] was 8 µg/mL (≈ 13.6 µM), the MIC [11] was 1 µg/mL (≈ 1.7 µM) and the MIC [12] was 8 µg/mL (≈ 13.6 µM). It also gave an MIC [13] of 0.5 µg/mL (≈ 0.852 µM), an MIC [14] of 2 µg/mL (≈ 3.41 µM) and an MIC [15] of 8 µg/mL (≈ 13.6 µM).
